Here are results for 53 compounds from PubChem BioAssay AID179 (DTP/NCI, 2004).

Structures are written as SMILES. The source made the active and inactive calls.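 Rule for the calls: active = compounds giving half or more protection of infected cells from virus-caused growth loss, again on retest; inactive = the rest.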

The assay relates to CEM cells HIV-1 protection, formazan growth assay. The assay can be described thus: NCI AIDS Antiviral Assay. The note with it: for IC50: measured here: growth of uninfected CEM cells. The essentials: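 Human CEM cells, uninfected and HIV-1-infected, received five drug concentrations, and growth was read by soluble formazan assay. Compounds giving at least 50% protection were retested; reproducible 100% protection defined confirmed active.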

Turning to `CCCCCCCCCCCCCCCCNCCCS(=O)(=O)O`, the EC50 (in general, the concentration at which the effect is half-maximal) is greater than 200 µM and the IC50 (commonly the concentration at which inhibition is half-maximal) was determined as 3.89 µM. As for `O=C(CC1(O)C(=O)Nc2c(Cl)ccc(Cl)c21)c1ccc(F)cc1` (stereo not drawn), the EC50 was greater than 372 µM and the IC50 amounted to 70.8 µM. In the case of `NC(=O)c1cc(-c2ccc(-n3ccnc3)cc2)n[nH]c1=O`, the EC50 was greater than 200 µM and the IC50 was found to be 155 µM. For the compound `CN(C=O)/C=C/c1cc(O)ccc1O`, the outcome was inactive. For the compound `CC12CCCC(O)C1CCC1=CC3(CCC12)SCCS3` (stereo not drawn), the EC50 was greater than 12 µM and the 50% inhibitory concentration (IC50) is greater than 12 µM. Regarding `O=c1n(CCCCn2c(=O)n(CC3CS3)c3ccccc32)c2ccccc2n1CC1CS1` (stereo not drawn), the EC50 was greater than 28.8 µM and the IC50 was determined as 9.12 µM. With `CC(=O)NC(CSSCC(NC(C)=O)C(=O)O)C(=O)O` (stereo not drawn), the EC50 was greater than 776 µM and the half-maximal inhibitory concentration (IC50) was greater than 776 µM. Take `COc1cc(C)cc2c(-c3c(O)cc(O)c4c3CC(C)N[C@H]4C)cc(-c3cc(-c4c(O)cc(O)c5c4CC(C)N[C@H]5C)c4cc(C)cc(OC)c4c3O)c(O)c12` (stereo partly drawn): the EC50 is 38 µM and the 50% inhibitory concentration (IC50) is 166 µM. Regarding `O=C1CCCC(=O)NNC(=O)Nc2ccc(cc2)Cc2ccc(cc2)NC(=O)NN1`, the EC50 is greater than 30.9 µM and the IC50 was greater than 30.9 µM. Take `S=C1NC2=S(N=C(Nc3ccccc3)N2c2ccccc2)S1` (stereo not drawn): the result was inactive. Consider `Cc1cc2c(cc1C)NC(=O)C(NC(=O)/C=C/c1ccccc1)C=N2` (stereo not drawn), for which the EC50 was greater than 56.2 µM and the IC50 was 38.9 µM. For the compound `CN(C)CCCNC(=O)c1nc(NC(=O)c2nc(NC(=O)c3nc(NC(=O)/C=C/C(=O)Nc4cn(C)c(C(=O)Nc5cn(C)c(C(=O)Nc6cn(C)c(C(=O)NCCCN(C)C)n6)n5)n4)cn3C)cn2C)cn1C`, the EC50 is greater than 50.1 µM and the 50% inhibitory concentration (IC50) was greater than 50.1 µM.

`CN(C)C1CCC2(CC1)OCCO2`: the result was inactive.

`COc1cc(OCc2ccccc2)c(O)cc1-c1coc2cc(OCc3ccccc3)ccc2c1=O`: the EC50 was greater than 200 µM and the IC50 was 4.27 µM. Take `O=c1[nH]cnc2cccc(Cl)c12`: the EC50 was greater than 200 µM and the IC50 is greater than 200 µM. For the compound `Cc1ccc(/C=C2/N=C(N/N=C\C(O)C(O)C(O)CO)NC2=O)cc1` (stereo not drawn), the EC50 is greater than 200 µM, the result was inactive and the IC50 is 110 µM.

As for `CC(C)(CO)CNc1cc(=O)[nH]c(N)n1`, the EC50 was greater than 200 µM and the IC50 was greater than 200 µM. `COc1nc2c(nc(N)n2C2OC(CO)C(O)C(O)C2O)c(=O)[nH]1` (stereo not drawn): the result was inactive. As for `O=C1CCC(c2nc3ccccc3o2)C(=O)N1` (stereo not drawn), the EC50 was greater than 1070 µM and the IC50 is greater than 1070 µM. On to `Cc1cc(C)nc(NC(=S)Nc2ccccc2Cl)c1`, for which the EC50 is greater than 200 µM and the concentration for half-maximal inhibition (IC50) was greater than 200 µM. For the compound `CC(=O)OC1C(C)(O)[C@@H]2CC[C@H]3C4(C)CCCC(C)(C)[C@H]4CC[C@]13C2` (stereo partly drawn), the EC50 is greater than 50.1 µM and the IC50 is greater than 50.1 µM. Regarding `CN(C)Cc1c[nH]c2c1S/C(=C/c1ccccc1)C2=O`, the EC50 was greater than 178 µM and the IC50 is 16.6 µM. The corresponding values for `O=P1(O)C=CC2(CCCC2)O1` are greater than 200 µM and greater than 200 µM. As to `CCN(CC)CCn1c2ccccc2c(=O)c2c(OC)ccc(OC)c21`, the outcome was inactive.

In the case of `O=C(CNC(=O)c1cnc2ccccc2n1)NCCCNC(=O)CNC(=O)c1cnc2ccccc2n1`, the EC50 is greater than 100 µM and the IC50 is greater than 100 µM.

Consider `CC(=O)O[C@H]1CC[C@@]2(C)C(=CC[C@H]3C4=CC=C(C(C)=O)[C@@]4(C)CCC32)C1` (stereo partly drawn), for which the result was inactive.

With `COc1cccc(C=O)c1[O-].COc1cccc(C=O)c1[O-].[Cu+2]`, the EC50 is greater than 97.7 µM and the IC50 was determined as 9.33 µM.

For `N=C(N)C1CN(CC=O)C(=O)NC1=O` (stereo not drawn), the EC50 was greater than 200 µM and the IC50 was greater than 200 µM. Turning to `CC/C(CC(=O)CCC(=O)Nc1ccc(C)c(C)c1)=N\NC(=O)C(N)=O`, the outcome was inactive.

Consider `O=C(c1ccccc1)c1c(C(=O)c2ccccc2)c(-c2ccccc2)c2c(-c3ccccc3)sc(-c3ccccc3)c2c1-c1ccccc1`, for which the outcome was inactive. As for `CC(NC1=NCCO1)c1cccs1` (stereo not drawn), the EC50 is greater than 200 µM and the IC50 came out at 138 µM. The corresponding values for `CC1(C)CCc2cc3c(O)c(-c4ccccc4)c(=O)oc3cc2O1` are greater than 200 µM and 77.6 µM. `CCOC(=O)c1cc2c(=O)cccnc2o1`: the EC50 is greater than 52.5 µM and the concentration for half-maximal inhibition (IC50) was greater than 52.5 µM.

Take `COc1cc(OC)cc(Oc2nc3ccccc3nc2C(=O)O)c1`: the EC50 is greater than 200 µM and the half-maximal inhibitory concentration (IC50) was greater than 200 µM. Regarding `COc1cccc(N/C(C)=C2/CCOC2=O)c1`, the EC50 is greater than 200 µM and the 50% inhibitory concentration (IC50) amounted to 105 µM.

Regarding `O=C1CC2C(CC3OC(=O)C4C3C23COC4(O)C(O)C3)c2occc21` (stereo not drawn), the EC50 is greater than 200 µM and the IC50 amounted to 3.24 µM. The corresponding values for `CCCCCCC[C@@H](O)CC(=O)NC(CC(C)C)C(=O)NC(CCC(=O)O)C(=O)NC1C(=O)NC(C(C)C)C(=O)NC(CC(C)C)C(=O)NC(CO)C(=O)NC(CC(C)C)C(=O)NC(CO)C(=O)NC(C(C)CC)C(=O)OC1C` (stereo partly drawn) are 91.2 µM and 166 µM. Consider `CSC(N)=Nc1cccc2ccccc12`, for which the EC50 was greater than 200 µM and the IC50 is greater than 200 µM. For `NCC#CCNCCCN1CC1`, the EC50 was greater than 200 µM and the 50% inhibitory concentration (IC50) was greater than 200 µM.

`Cc1cc(C)c([O-])c(-[n+]2c(-c3ccccc3)cc(-c3ccccc3)cc2-c2ccccc2)c1`: the EC50 was greater than 17 µM and the IC50 was determined as 2.88 µM. On the same counts, the results for `OC(C1CCCC1=N/N=C1/CCCC1C(O)(C(F)(F)Cl)C(F)(F)Cl)(C(F)(F)Cl)C(F)(F)Cl` (stereo not drawn) are greater than 50.1 µM and greater than 50.1 µM. The corresponding values for `CCOC(=O)C(NC(=O)OCc1ccccc1)C(=O)O` (stereo not drawn) are greater than 200 µM and greater than 200 µM. Take `Cc1ccc(S(=O)(=O)Nn2c3c(cc(C#N)c2=O)CCC3)cc1`: the EC50 was greater than 200 µM and the IC50 is greater than 200 µM. Turning to `O=C1Cc2c([nH]c3ccc(Br)cc23)-c2ccccc2N1`, the EC50 is greater than 200 µM and the IC50 came out at 2.95 µM. With `O=C1NC(=O)[C@@]2(CCOc3ccc(F)cc32)N1`, the EC50 was greater than 741 µM and the IC50 worked out at 661 µM. On the same counts, the results for `O=c1c2[nH]cnc2n(-c2ccccc2)c(=S)n1-c1ccccc1` are greater than 200 µM and greater than 200 µM. Regarding `COC(=O)/C(C#N)=C(\N)C(Cl)(Cl)Cl`, the result was inactive. On to `CCOP1(OCC)(SSC)OC(=O)C(C)S1` (stereo not drawn), for which the EC50 was greater than 813 µM and the IC50 was found to be 617 µM. Take `CC(C)(C)OC(=O)NCCCCCCC(=O)Cc1ccccc1`: the EC50 is greater than 200 µM and the half-inhibitory concentration (IC50) is 117 µM. In the case of `CCCCN1C[C@H](OC(=O)CCC)[C@@H](OC(=O)CCC)[C@H](OC(=O)CCC)[C@H]1COC(=O)CCC`, the EC50 is greater than 200 µM and the IC50 was greater than 200 µM.

Consider `Cc1nc2ccccc2c(=O)n1-c1ccccc1Cl`, for which the EC50 is greater than 182 µM and the IC50 was found to be 148 µM. Regarding `COc1ccc(N2C(=O)[C@@H]3[C@H](C2=O)c2[nH]c4ccccc4c2C2CCC(C(C)(C)C)C[C@@H]23)cc1` (stereo partly drawn), the EC50 was greater than 28.2 µM and the half-inhibitory concentration (IC50) is greater than 28.2 µM. For `CC(O)CC(O)(C(F)(F)F)C(F)(F)F` (stereo not drawn), the EC50 is greater than 200 µM and the half-inhibitory concentration (IC50) is greater than 200 µM.
